Laboratory results as given in patent US4206215A, “Antimicrobial bis-[4-(substituted-amino)-1-pyridinium]alkanes” (Sterling Drug Inc., priority 1977, dated 1980).
Like-named read-outs stand apart in the source and are kept apart here.

What was measured:
S. Aureus Smith = assay: In vitro antibacterial activity, MIC (modified Autotiter method); assay type: cell-based, Staphylococcus aureus; conditions: for MIC: Staphylococcus aureus, 20 h, read-out: MIC S. Aureus Smith
Procedure: (§1) The antibacterial and antifungal activity of representative examples of the compounds of Formula I was determined using a modification of the Autotiter method described by Goss, et al. Applied Microbiology 16 (9) 1,414-1,416 (1968) in which a 1,000 mcg./ml. solution of the test compound is prepared. To the first cup of the Autotray is added 0.1 ml. of the test solution. Activation of the Autotiter initiates a sequence of operations by which 0.05 ml. of the test compound solution is withdrawn from the cup by a Microtiter transfer loop and diluted in 0.05 ml. of sterile water. Following this operation, 0.05 ml. of inoculated double-strength semisynthetic medium (glucose) is added automatically to each cup. The overall operation results in final drug concentrations ranging from 500 to 0.06 mcg./ml. in twofold decrements. […] The compounds were thus tested as solutions against a variety of gram positive and gram negative bacteria including Staphylococcus aureus, Proteus mirabilis, Escherichia coli, Klebsiella pneumoniae, Pseudomonas aeruginosa, Streptococcus pyogenes, and against such fungi as Aspergillus niger, Candida albicans and Trichophyton mentagrophytes.

E. coli 100/B22 = assay: as above; assay type: cell-based, Escherichia coli; conditions: Escherichia coli, 100/B22, 20 h, 18-20 hours at 37° C.; read-out: MIC E. coli 100/B22
Procedure: as §1

E. coli AB1932-1 = assay: as above; assay type: cell-based, Escherichia coli; conditions: 18-20 hours at 37° C.; for MIC: Escherichia coli, AB19321, 20 h, read-out: MIC E. coli AB1932-1
Procedure: as §1

E. coli Vogel = assay: as above; assay type: cell-based, Escherichia coli; conditions: for MIC: Escherichia coli, 20 h, read-out: MIC E. coli Vogel
Procedure: as §1

K. pneum. 39645 = assay: as above; assay type: cell-based, Klebsiella pneumoniae; conditions: for MIC: Klebsiella pneumoniae, 20 h, read-out: MIC K. pneum. 39645
Procedure: as §1

P. mirab. MGH-1 = assay: as above; assay type: cell-based, Proteus mirabilis; conditions: for MIC: Proteus mirabilis, 20 h, read-out: MIC P. mirab. MGH-1
Procedure: as §1

Ps. aerug. MGH-2 = assay: as above; assay type: cell-based, Pseudomonas aeruginosa; conditions: for MIC: Pseudomonas aeruginosa, 20 h, read-out: MIC Ps. aerug. MGH-2
Procedure: as §1

S. pyogen. C203 = assay: as above; assay type: cell-based, Streptococcus pyogenes; conditions: for MIC: Streptococcus pyogenes, 20 h, read-out: MIC S. pyogen. C203
Procedure: as §1

A. niger 16404 = assay: In vitro antifungal activity, MIC (modified Autotiter method); assay type: cell-based, Aspergillus niger; conditions: for MIC: Aspergillus niger, 16404, 20 h, read-out: MIC A. niger 16404
Procedure: as §1

C. albicans 10231 = assay: as above; assay type: cell-based, Candida albicans; conditions: for MIC: Candida albicans, 10231, 20 h, read-out: MIC C. albicans 10231
Procedure: as §1

C. albicans Wisc. = assay: as above; assay type: cell-based, Candida albicans; conditions: Candida albicans, 20 h, 18-20 hours at 37° C.; read-out: MIC C. albicans Wisc.
Procedure: as §1

T. menta. 9129 = assay: as above; assay type: cell-based, Trichophyton mentagrophytes; conditions: for MIC: Trichophyton mentagrophytes, 20 h, read-out: MIC T. menta. 9129
Procedure: as §1

| SMILES | MIC (S. Aureus Smith; 18-20 hours at 37° C.) [µg/mL] | MIC (E. coli 100/B22) [µg/mL] | MIC (K. pneum. 39645; 18-20 hours at 37° C.) [µg/mL] | MIC (P. mirab. MGH-1; 18-20 hours at 37° C.) [µg/mL] | MIC (Ps. aerug. MGH-2; 18-20 hours at 37° C.) [µg/mL] | MIC (S. pyogen. C203; 18-20 hours at 37° C.) [µg/mL] | MIC (C. albicans 10231; 18-20 hours at 37° C.) [µg/mL] | MIC (C. albicans Wisc.) [µg/mL] | MIC (E. coli AB1932-1) [µg/mL] | MIC (E. coli Vogel; 18-20 hours at 37° C.) [µg/mL] | MIC (A. niger 16404; 18-20 hours at 37° C.) [µg/mL] | MIC (T. menta. 9129; 18-20 hours at 37° C.) [µg/mL] | also measured |
| --- | --- | --- | --- | --- | --- | --- | --- | --- | --- | --- | --- | --- | --- |
| CCCCCCNc1cc[n+](CCCCCCCCCCCC[n+]2ccc(NCCCCCC)cc2)cc1 [Example 8] | 0.25 | 0.5 | 1 | 7.8 | 15.6 | 1 | 1 | 1 | – | – | – | – | MIC E. coli AB1932-1 (E. coli AB1932-1): 1.0 µg/mL; MIC E. coli Vogel (E. coli Vogel; 18-20 hours at 37° C.): 1.0 µg/mL; MIC A. niger 16404 (A. niger 16404; 18-20 hours at 37° C.): 7.8 µg/mL; MIC T. menta. 9129 (T. menta. 9129; 18-20 hours at 37° C.): 1.0 µg/mL |
| CCCCCCCCNc1cc[n+](CCCCCCCCCC[n+]2ccc(NCCCCCCCC)cc2)cc1 [Example 10C, 1,10-bis-[4-(octylamino)-1-pyridinium]decane bis(1-oxo-2-pyridinethiolate)] | – | – | – | – | – | – | – | – | – | – | – | – | MIC S. Aureus Smith (S. Aureus Smith; 18-20 hours at 37° C.): 1.0 µg/mL; MIC E. coli Vogel (E. coli Vogel; 18-20 hours at 37° C.): 1.0 µg/mL; MIC K. pneum. 39645 (K. pneum. 39645; 18-20 hours at 37° C.): 1.95 µg/mL; MIC P. mirab. MGH-1 (P. mirab. MGH-1; 18-20 hours at 37° C.): 1.95 µg/mL; MIC Ps. aerug. MGH-2 (Ps. aerug. MGH-2; 18-20 hours at 37° C.): 3.9 µg/mL; MIC S. pyogen. C203 (S. pyogen. C203; 18-20 hours at 37° C.): 0.5 µg/mL; MIC A. niger 16404 (A. niger 16404; 18-20 hours at 37° C.): 1.95 µg/mL; MIC C. albicans 10231 (C. albicans 10231; 18-20 hours at 37° C.): 1.0 µg/mL; MIC T. menta. 9129 (T. menta. 9129; 18-20 hours at 37° C.): 1.0 µg/mL |
| CCCCCCNc1cc[n+](CCCCCCCCC[n+]2ccc(NCCCCCC)cc2)cc1 [Example 19, 1,9-bis-[4-(hexylamino)-1-pyridinium]-nonane dibromide] | 0.39 | 1.95 | 3.9 | 125 | 125 | 0.49 | 1.95 | 3.9 | 1.95 | 1.95 | 15.6 | 3.9 | – |
| CCCCCCCNc1cc[n+](CCCC[n+]2ccc(NCCCCCCC)cc2)cc1 [Example 20, 1,4-bis-[4-(heptylamino)-1-pyridinium]butane dibromide] | 0.98 | 15.6 | > 125 | > 250 | > 250 | 0.49 | 15.6 | 15.6 | 7.8 | 31.3 | 15.6 | 3.9 | – |
| CCCNc1cc[n+](CCCCCCCCCC[n+]2ccc(NCCC)cc2)cc1 [Example 30, 1,10-bis-[4-(propylamino)-1-pyridinium]decane dibromide] | 1.95 | > 62.5 | > 62.5 | > 250 | > 62.5 | 3.9 | 15.6 | 7.8 | > 62.5 | > 62.5 | 31.3 | 1 | – |
| CCCCCCNc1cc[n+](CCCCCCCC[n+]2ccc(NCCCCCC)cc2)cc1 [Example 32, 1,8-bis-[4-(hexylamino)-1-pyridinium]octane dibromide] | 0.24 | 3.9 | 7.8 | > 250 | 125 | 0.49 | 3.9 | 3.9 | 1.95 | 3.9 | 7.8 | 7.8 | – |
| c1c[n+](CCCCCCCC[n+]2ccc(NC3CCCCC3)cc2)ccc1NC1CCCCC1 [Example 38, 1,8-bis-[4-(cyclohexylamino)-1-pyridinium]octane dibromide] | 3.9 | 62.5 | > 125 | > 125 | 250 | 0.93 | 31.3 | 31.3 | 31.3 | 62.5 | 15.6 | 3.9 | – |
| CCCCCCCCNc1cc[n+](CCCCCCC[n+]2ccc(NCCCCCCCC)cc2)cc1 [Example 43, 1,7-bis-[4-(octylamino)-1-pyridinium]heptane dibromide] | 0.5 | 1 | 1 | 7.8 | 31.3 | 1 | 1.95 | 1.95 | 1 | 1.95 | 7.8 | 1 | – |
| CCCCCCCCNc1cc[n+](CCCCCCCCCCCC[n+]2ccc(NCCCCCCCC)cc2)cc1 [Example 45, 1,12-bis-[4-(octylamino)-1-pyridinium]dodecane dibromide] | 0.5 | 1.95 | 1 | 1.95 | 1.95 | 1 | 1 | 3.9 | 1.95 | 1.95 | 7.8 | 1 | – |
| Nc1cc[n+](CCCC[n+]2ccc(N)cc2)cc1 [III, 1,4-bis-(4-amino-1-pyridinium)butane dibromide, reference compound] | 125 | – | > 500 | > 500 | > 500 | 62.5 | > 500 | – | – | 250 | 500 | 500 | – |
| Nc1cc[n+](CCCCCC[n+]2ccc(N)cc2)cc1 [IV, 1,6-bis-(4-amino-1-pyridinium)hexane dibromide, reference compound] | 125 | – | > 500 | > 500 | > 500 | 62.5 | > 500 | – | – | 250 | 500 | > 500 | – |
| Cc1cc(N)cc[n+]1CCCCCCCCC[n+]1ccc(N)cc1C [IX, 1,9-bis-(4-amino-2-methyl-1-pyridinium)nonane dibromide, reference compound] | 3.9 | – | 250 | > 500 | > 500 | 3.9 | 31.3 | – | – | 31.3 | 31.3 | 7.8 | – |
| Nc1cc[n+](CCCCCCCCCCCC[n+]2ccc(N)cc2)cc1 [V, 1,12-bis-(4-amino-1-pyridinium)dodecane dibromide, reference compound] | 1.95 | – | > 62.5 | > 125 | > 62.5 | 1 | 31.3 | – | – | 62.5 | 31.3 | 3.9 | – |
| CC(CCCCCCCCC[n+]1ccc(N)cc1)[n+]1ccc(N)cc1 (stereo not drawn) [VI, 1,10-bis-(4-amino-1-pyridinium)-1-methyldecane dibromide, reference compound] | 15.6 | – | 500 | > 500 | > 500 | 15.6 | 31.3 | – | – | 250 | 250 | 15.6 | – |
| Nc1cc[n+](CCCCCCCCC[n+]2ccc(N)cc2)cc1 [VII, 1,9-bis-(4-amino-1-pyridinium)nonane dibromide, reference compound] | 31.3 | – | 500 | > 500 | > 500 | 7.8 | 31.3 | – | – | 250 | 250 | 15.6 | – |
| Cc1cc(N)cc[n+]1CCCCCCCC[n+]1ccc(N)cc1C [VIII, 1,8-bis-(4-amino-2-methyl-1-pyridinium)octane dibromide, reference compound] | – | – | – | – | – | – | – | – | – | – | – | – | MIC (S. Aureus Smith): 31.3 µg/mL; MIC (E. coli Vogel): > 250 µg/mL; MIC (K. pneum. 39645): 500 µg/mL; MIC (P. mirab. MGH-1): > 500 µg/mL; MIC (Ps. aerug. MGH-2): > 500 µg/mL; MIC (S. pyogen. C203): 7.8 µg/mL; MIC (A. niger 16404): 125 µg/mL; MIC (C. albicans 10231): 125 µg/mL; MIC (T. menta. 9129): 15.6 µg/mL |
